Measurements as given in US10752612B2, “PLK4 inhibitors” (LUDWIG INSTITUTE FOR CANCER RESEARCH LTD, priority 2015, dated 2020).

Target: T1, human Plk4 kinase domain (aa 2-275) (Homo sapiens, UniProt O00444)
T1 construct: purified 6×His-tagged human Plk4 kinase domain (aa 2-275); 6xHis; made in house; host or cells: E. coli
T1 sequence (O00444 2-275): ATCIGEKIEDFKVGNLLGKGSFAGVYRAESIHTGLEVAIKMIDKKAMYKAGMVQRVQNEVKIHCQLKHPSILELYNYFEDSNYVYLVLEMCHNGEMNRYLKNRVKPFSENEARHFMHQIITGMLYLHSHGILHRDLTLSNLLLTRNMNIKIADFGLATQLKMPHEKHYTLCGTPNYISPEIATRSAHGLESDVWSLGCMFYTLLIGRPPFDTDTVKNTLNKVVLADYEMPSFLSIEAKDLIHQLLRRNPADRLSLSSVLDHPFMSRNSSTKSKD
Assay: Plk4 kinase assay (ADP-Glo)
Assay type: biochemical
Conditions: Table 1
Summary of the method: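 Enzyme at 2.5-10 nM final, pH 8.0, reacted 4-16 hours at 25° C; ADP generation read by ADP-Glo luminescence. Ki derived from IC50 by Cheng-Prusoff or, for tight binders, Copeland formalism.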

SMILES	IC50 [nM]
COc1c(Nc2cc(C)[nH]n2)nc(Sc2ccc(NC(C)=O)cc2)nc1N1CCC(CC(=O)O)CC1	< 1000
CCOc1c(Nc2cc(C)[nH]n2)nc(Sc2ccc(NC(=O)C3CC3)cc2)nc1N1CCCCC1	100 to 1000
CC(=O)Nc1ccc(Sc2nc(Nc3cc(C)[nH]n3)c(C)c(N3CCC(F)CC3)n2)cc1	< 1000
CCN1CCN(c2nc(Sc3ccc(NC(=O)C4CC4)cc3)nc(Nc3cc(C)[nH]n3)c2OC)CC1	< 1000
COc1c(Nc2cc(C)[nH]n2)nc(Sc2ccc(S(=O)(=O)Cc3ccccc3)cc2F)nc1N1CCN(CCN(C)C)CC1	< 1000
COc1c(Nc2cc(C)[nH]n2)nc(Sc2ccc(S(C)(=O)=O)cc2)nc1C1CCN(CCN(C)C)CC1	100 to 1000
COc1c(Nc2cc(C)[nH]n2)nc(Sc2ccc(NC(C)=O)cc2)nc1N1CCN(CCS(C)(=O)=O)CC1	< 1000
CC(=O)Nc1ccc(Sc2nc(Nc3cc(C)[nH]n3)c(C)c(N3CCN(CCN4CCCCC4)CC3)n2)cc1	< 1000
COc1c(Nc2cc(C)[nH]n2)nc(Sc2ccc(S(=O)(=O)Nc3cccc([N+](=O)[O-])c3)cc2F)nc1N1CCOCC1	< 1000
COc1c(Nc2cc(C)[nH]n2)nc(Sc2ccc(NC(C)=O)cc2)nc1N1CCNCC1	< 1000
COc1c(Nc2cc(C)[nH]n2)nc(Sc2ccc(NC(C)=O)cc2)nc1N1CCN(C(N)=O)CC1	< 1000
CCOc1c(Nc2cc(C)[nH]n2)nc(Sc2ccc(NC(C)=O)cc2)nc1N1CCN(CCOC)CC1	100 to 1000
COc1c(Nc2cc(C)[nH]n2)nc(Sc2ccc(NC(C)=O)cc2)nc1N(C)C	< 1000
Cc1cc(Nc2nc(Sc3ccc(N)cc3)nc3c2CCC32CCN(CCN(C)C)CC2)n[nH]1	< 1000
COc1c(Nc2cc(C)[nH]n2)nc(Sc2ccc(S(=O)(=O)C(C)(C)c3cccc([N+](=O)[O-])c3F)cc2F)nc1N1CC[C@H](N(C)C)C1	< 1000
Cc1ccc(Sc2nc(Nc3cc(C)[nH]n3)c(C)c(N3CCCCC3)n2)cc1	< 1000
COc1cccc(CS(=O)(=O)c2ccc(Sc3nc(Nc4cc(C)[nH]n4)c(OC)c(N4CCN(CCN(C)Cc5ccccc5)CC4)n3)cc2)c1	< 1000
CCOc1c(Nc2cc(C)[nH]n2)nc(Sc2ccc(NC(=O)C3CC3)cc2)nc1N1CCNCC1 [drawing 122]	< 1000
CCOc1c(Nc2cc(C)[nH]n2)nc(Sc2ccc(NC(=O)C3CC3)cc2)nc1N1CCN(C2CCN(C)CC2)CC1	100 to 1000
CCS(=O)(=O)c1ccc(Sc2nc(Nc3cc(C)[nH]n3)c(OC)c(N3CCN(CCN(C)C)CC3)n2)c(Cl)c1	< 1000
COc1c(Nc2cc(C)[nH]n2)nc(Sc2ccc(NC(=O)C3CC3)cc2)nc1N1CCN(c2ccccc2)CC1	100 to 1000
Cc1cc(Nc2nc(Sc3ccc(NC(=O)C4CC4)cc3)nc(Cl)c2C)n[nH]1	< 1000
CCOc1c(Nc2cc(C)[nH]n2)nc(Sc2ccc(NC(C)=O)cc2)nc1N(C)CC	100 to 1000
COc1c(Nc2cc(C)[nH]n2)nc(Sc2ccc(NC(C)=O)cc2)nc1N1CCN(CC(=O)O)CC1	< 1000
COc1c(Nc2cc(C)[nH]n2)nc(Sc2ccc(NC(=O)C3CC3)cc2)nc1N1CCC(O)CC1	< 1000

SMILES	IC50 [nM]
COc1c(Nc2cc(C)[nH]n2)nc(Sc2ccc(S(=O)(=O)Cc3ccccc3F)cc2)nc1N1CCOCC1	< 1000
Cc1cc(Nc2nc(Sc3ccc(NC(=O)C4CC4)cc3)nc(N(C)CCN(C)C)c2C)n[nH]1	< 1000
COc1c(Nc2cc(C)[nH]n2)nc(Sc2ccc(S(=O)(=O)Cc3ccccc3C#N)cc2)nc1N1CCN(CCN(C)C)CC1	< 1000
CNCCN1CCN(c2nc(Sc3ccc(NC(=O)C4CC4)cc3)nc(Nc3cc(C)[nH]n3)c2OC)CC1	< 1000
CC(=O)Nc1ccc(Sc2nc(Nc3cc(C)[nH]n3)c(C)c(N3CCN(C(=O)CN(C)C)CC3)n2)cc1	< 1000
COc1c(Nc2cc(C)[nH]n2)nc(Sc2ccc(S(=O)(=O)CC(C)C)cc2)nc1N1CCN(CCN(C)C)CC1	< 1000
COc1c(Nc2cc(C)[nH]n2)nc(Sc2ccc(S(=O)(=O)Cc3cccc(Br)c3F)cc2F)nc1N1CCCCC1	< 1000
COc1c(Nc2cc(C)[nH]n2)nc(Sc2ccc(NC(=O)C3CCCC3)cc2)nc1N1CCOCC1	< 1000
CNC(=O)Nc1ccc(Sc2nc(Nc3cc(C)[nH]n3)c(C)c(N(C)C(C)C)n2)cc1	< 1000
COc1ccc(CS(=O)(=O)c2ccc(Sc3nc(Nc4cc(C)[nH]n4)c(OC)c(N4CCOCC4)n3)c(F)c2)cc1	< 1000
COc1c(Nc2cc(C)[nH]n2)nc(Sc2ccc(NC(C)=O)cc2)nc1N1CCN(CCN2CCC(O)CC2)CC1	100 to 1000
COc1c(Nc2cc(C)[nH]n2)nc(Sc2ccc(S(=O)(=O)Cc3cc([N+](=O)[O-])ccc3F)cc2)nc1N1CCN(CCN(C)C)CC1	< 1000
COc1c(Nc2cc(C)[nH]n2)nc(Sc2ccc(S(=O)(=O)C(C)(C)c3cccc([N+](=O)[O-])c3F)cc2F)nc1N1CCC(OC)C1 (stereo not drawn)	< 1000
CC(=O)Nc1ccc(Sc2nc(Nc3cc(C)[nH]n3)c(Cl)c(N3CCCCC3)n2)cc1	< 1000
COc1c(C)nc(Sc2ccc(S(=O)(=O)Cc3ccccc3)cc2)nc1Nc1cc(C)[nH]n1	< 1000
CCS(=O)(=O)c1ccc(Sc2nc(Nc3cc(C)[nH]n3)c(OC)c(N3CCNCC3)n2)cc1	< 1000
COc1c(Nc2cc(C)[nH]n2)nc(Sc2ccc(S(=O)(=O)Cc3cccc(N)c3F)cc2F)nc1N1CCOCC1	< 1000
COc1c(Nc2cc(C)[nH]n2)nc(Sc2ccc(NC(=O)C3CC3)cc2)nc1NC(C)C	< 1000
COc1c(Nc2cc(C)[nH]n2)nc(Sc2ccc(NC(=O)C(F)(F)F)cc2)nc1N1CCN(CCN(C)C)CC1	< 1000
COc1c(Nc2cc(C)[nH]n2)nc(Sc2ccc(NC(=O)C3CCCC3)cc2)nc1N1CCN(C)CC1	< 1000
COC(=O)Cc1cc(Nc2nc(SC)nc(N3CCN(CCN(C)C)CC3)c2OC)n[nH]1	> 1000
COc1c(Nc2cc(C)[nH]n2)nc(Sc2ccc(S(=O)(=O)Cc3cccc([N+](=O)[O-])c3F)cc2)nc1N1CCN(CCN(C)C)CC1	< 1000
COc1c(Nc2cc(C)[nH]n2)nc(Sc2ccc(S(=O)(=O)C(C)(C)c3cccc([N+](=O)[O-])c3F)cc2F)nc1N1CCN(CC(=O)N(C)C)CC1	< 1000
COc1c(Nc2cc(C)[nH]n2)nc(Nc2ccc(S(=O)(=O)Cc3ccccc3)cc2)nc1N1CCN(CCN(C)C)CC1	< 1000
CC(=O)Nc1ccc(Sc2nc(Nc3cc(C)[nH]n3)cc(C3CCN(CCN(C)C)CC3)n2)cc1	100 to 1000

SMILES	IC50 [nM]
Cc1cc(Nc2nc(Sc3ccc(NC(=O)C4CCCC4)cc3)nc(N3CCN(C4CCN(C)CC4)CC3)c2C)n[nH]1	< 1000
CC(=O)Nc1ccc(Sc2nc(Nc3cc(C)[nH]n3)c(C)c(NC3CCN(C)CC3)n2)cc1	< 1000
COc1c(Nc2nccs2)nc(Sc2ccc(NC(C)=O)cc2)nc1N1CCN(CCN(C)C)CC1	100 to 1000
COc1c(Nc2cc(C)[nH]n2)nc(Sc2ccc(NC(C)=O)cc2)nc1N1CCN(CCN(C)Cc2ccccc2)CC1	< 1000
Cc1cc(Nc2nc(Sc3ccc(NC(=O)C4CC4)cc3)nc(N3CCN(C)CC3)c2C)n[nH]1	< 1000
COc1c(Nc2cc(C)[nH]n2)nc(Sc2ccc(S(=O)(=O)Cc3cccc(F)c3F)cc2F)nc1N1CCOC[C@@H]1C	< 1000
COc1c(Nc2cc(C)[nH]n2)nc(Sc2ccc(S(=O)(=O)C(C)(C)c3cccc([N+](=O)[O-])c3F)cc2F)nc1N1CCN(CCN(C)C)CC1	< 1000
COc1c(Nc2cc(C)[nH]n2)nc(Sc2ccc(S(=O)(=O)Cc3cccc([N+](=O)[O-])c3)cc2F)nc1N1CCN(CCN(C)C)CC1	< 1000
COc1c(Nc2cc(C)[nH]n2)nc(Sc2ccc(S(=O)(=O)Cc3cccc([N+](=O)[O-])c3F)cc2F)nc1N1CCC(CCN(C)C)CC1	< 1000
CCS(=O)(=O)c1ccc(Sc2nc(Nc3cc(C)[nH]n3)c(OC)c(N3CCC(CCN(C)C)CC3)n2)c(Cl)c1	< 1000
CC(=O)Nc1ccc(Sc2nc(Nc3cc(C)[nH]n3)c(Cl)c(N3CCN(C)CC3)n2)cc1	< 1000
CC(=O)Nc1ccc(Sc2nc(Nc3cc(C)[nH]n3)c(C)c(N3CCC(F)(F)CC3)n2)cc1	< 1000
COc1c(Nc2cc(C)[nH]n2)nc(Sc2ccc(S(=O)(=O)Cc3cccc([N+](=O)[O-])c3F)cc2F)nc1N1CCN(CCN(C)C)CC1	< 1000
CCN(C)c1nc(Sc2ccc(NC(=O)C3CC3)cc2)nc(Nc2cc(C)[nH]n2)c1C	< 1000
COCC(=O)N1CCN(c2nc(Sc3ccc(NC(C)=O)cc3)nc(Nc3cc(C)[nH]n3)c2C)CC1	< 1000
COc1c(Nc2cc(C)[nH]n2)nc(Sc2ccc(NC(C)=O)nc2)nc1N1CCOCC1	< 1000
COc1c(Nc2cc(C)[nH]n2)nc(Sc2ccc(NC(C)=O)cc2)nc1N1CCC(CCN(C)C)CC1	< 1000
CCOc1c(Nc2cc(C)[nH]n2)nc(Sc2ccc(NC(=O)C3CC3)cc2)nc1N1CCN(C(=O)CCN(C)C)CC1	100 to 1000
COc1c(Nc2cc(C)[nH]n2)nc(Sc2ccc(S(=O)(=O)Cc3c(F)ccc(F)c3F)cc2F)nc1N1CCN(CCN(C)C)CC1	< 1000
COc1c(Nc2cc(C)[nH]n2)nc(Sc2ccc(S(=O)(=O)C(C)(C)c3c(F)c(F)cc(F)c3F)cc2F)nc1N1CCC(NC(C)=O)C1 (stereo not drawn)	< 1000
COCCN1CCN(c2nc(Sc3ccc(NC(=O)C4CC4)cc3)nc(Nc3cc(C)[nH]n3)c2C)CC1	< 1000
COc1c(Nc2cc(C)[nH]n2)nc(Sc2ccc(S(=O)(=O)Cc3cccs3)cc2)nc1N1CCN(CCN(C)C)CC1	< 1000
Cc1cc(Nc2nc(Sc3ccc(NC(=O)C4CC4)cc3)nc(N3CCN(C)CC3)c2Cl)n[nH]1	100 to 1000
Cc1cc(Nc2nc(Sc3ccc(N)cc3)nc(N3CCOCC3)c2C)n[nH]1	< 1000
COc1c(Nc2cc(C)[nH]n2)nc(Sc2ccc(S(=O)(=O)Cc3ccccc3)cc2)nc1N1CCN(Cc2ccccc2)CC1	< 1000
